{
  "source": "patent EP3892267A1",
  "about": "“C[…] FOR LYMPHOMA” (Université de Paris, priority 2020, dated 2021)",
  "key": {"MD901 cell line": {"tested_on": "MD901 cell line", "test": "Immunoblotting for cleaved caspase 3", "type": "cell-based, Human", "settings": "MD901 (ABC); metformin 2.5mM, Kidrolase 2UI/mL, alone or combined", "procedure": "(§1) The cells are washed in cold 1X PBS then lysis is carried out at 4°C (on ice) for 20 minutes, using a mix containing a High Salt buffer (0.4 M NaCl). 25 mM Hepes pH 7.7, 1.5 mM MgCI 2, 0.2 mM EDTA, 1%NP4O), protease and phosphatase inhibitors (20 mM glycerol phosphate, 0.2 mM Na3VO4, 10mM PNPP, 2 mM DTT, […] and an inhibitor cocktail from Boehringer Company). Whole cell extracts are centrifuged also at 4°C for 10 minutes at 13 000 rpm, the supernatant is transferred to an Eppendorf tube and the proteins are dosed using a protein kit assay (Bio-Rad) and stored at - 80°C. Immunoblotting was performed as previously reported (Authier H et al, 2014). Cleaved caspase 3 and β-actin antibodies are from Cell Signaling Technologies and Sigma, respectively."}, "OCI-LY19 cell line": {"tested_on": "OCI-LY19 cell line", "test": "Immunoblotting for cleaved caspase 3", "type": "cell-based, Human", "settings": "OCI-LY19 (GCB); metformin 2.5mM, Kidrolase 2UI/mL, alone or combined", "procedure": "as §1"}},
  "note": "Structures can show the parent of a compound that is named as a salt.",
  "data": [
    {"compound": "CN(C)C(=N)N=C(N)N", "note": "[metformin, Metformin hydrochloride]", "values": [
      {"measurement": "activation of caspase 3 (cleaved caspase 3)", "setting": "MD901 cell line", "result": "not to barely detectable"},
      {"measurement": "activation of caspase 3 (cleaved caspase 3)", "setting": "OCI-LY19 cell line", "result": "not to barely detectable"}
    ]}
  ]
}
